pKi: −log10 of the molar value.
Target: T1, CCR1 (Homo sapiens, UniProt P32246)
T1 construct: THP-1 monocytic leukemia cells are combined with 100 μg of LS WGA PS beads; endogenous in cells; host or cells: THP-1 monocytic leukemia cells
T1 sequence (P32246 1-355): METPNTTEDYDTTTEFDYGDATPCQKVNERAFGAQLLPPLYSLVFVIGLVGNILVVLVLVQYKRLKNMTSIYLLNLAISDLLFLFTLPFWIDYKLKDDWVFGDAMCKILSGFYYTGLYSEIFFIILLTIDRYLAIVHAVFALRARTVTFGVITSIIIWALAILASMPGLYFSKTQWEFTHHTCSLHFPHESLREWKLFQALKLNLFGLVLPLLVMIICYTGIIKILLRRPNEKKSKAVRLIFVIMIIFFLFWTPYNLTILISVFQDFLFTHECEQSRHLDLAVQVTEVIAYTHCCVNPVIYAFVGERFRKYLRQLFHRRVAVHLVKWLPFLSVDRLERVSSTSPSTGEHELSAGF
Experiment: Human CCR1 THP-1 binding assay ([125I]MIP-1α competition)
Conditions: THP-1 cells
Procedure: For radioligand competition studies, a final concentration of 1×10^5 THP-1 monocytic leukemia cells are combined with 100 μg of LS WGA PS beads (Amersham, Cat.#: RPNQ 0260) in 40 μL of assay buffer (RPMI 1640 without phenol red, 50 mM HEPES, 5 mM MgCl2, 1 mM CaCl2, 0.1% BSA). The THP-1 cell/bead mixture was added to each well of a 384-well assay plate (PerkinElmer, Cat. #:6007899) containing test compound in 3-fold serial dilution, with final concentrations ranging from 8 μM to 0.14 nM. A final concentration of 0.1 nM [^125I]MIP-1α (PerkinElmer, Cat. # NEX298) in 20 μL assay buffer was added to the reaction. Unlabeled MIP-1α was added in excess to some wells to determine non-specific binding. Sealed assay plates were incubated at room temperature for 12 h then analyzed by LEADseeker™.
The competition data of the test compound over a range of concentrations is plotted as percentage inhibition of radioligand specifically bound in the absence of test compound (percent of total signal). After correcting for non-specific binding, IC50 values are determined. […] The Ki values are determined by application of the Cheng-Prusoff equation to the IC50 values, where Ki=IC50/(1+ligand concentration/Kd). […]

Structure (SMILES) | pKi
CC(C)COC(=O)N[C@@H](C(=O)N1CC[C@](O)(c2ccc(Cl)cc2)C(C)(C)C1)C(C)C [Example 1083] | 8.59
CC(C)[C@@H](NC(=O)[C@@H]1CCC(F)(F)C1)C(=O)N1CC[C@](O)(c2ccc(Cl)cc2)[C@@](C)(O)C1 [Compound I, (R)—N—((R)-1-((3S,4S)-4-(4-chlorophenyl)-3,4-dihydroxy-3-methylpiperidin-1-yl)-3-methyl-1-oxobutan-2-yl)-3,3-difluorocyclopentanecarboxamide] | 8.80
